ChEMBL document CHEMBL1201861, “Genomics of Drug Sensitity in Cancer screening data, Wellcome Trust Sanger Institute”

How the values were obtained:
Assay in all cases: cells
COLO-829 = type: functional, cell-based, Homo sapiens; conditions: Homo sapiens, COLO-829
Description: SANGER: Inhibition of human COLO-829 cell growth in a cell viability assay.

Ca-Ski = type: functional, cell-based; conditions: Homo sapiens;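 further: cell viability assay measuring inhibition of Ca-Ski cell growth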
Description: SANGER: Inhibition of human Ca-Ski cell growth in a cell viability assay.

Capan-2 = type: functional, cell-based, Homo sapiens; conditions: Homo sapiens, Capan-2;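 further: Capan-2 cell growth inhibition, read out with a viability assay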
Description: SANGER: Inhibition of human Capan-2 cell growth in a cell viability assay.

D283 Med = type: functional, cell-based, Homo sapiens; conditions: Homo sapiens, D283 Med
Description: SANGER: Inhibition of human D-283MED cell growth in a cell viability assay.

DBTRG-05MG = type: functional, cell-based, Homo sapiens; conditions: Homo sapiens, DBTRG-05MG;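 further: cell viability assay measuring growth inhibition of human DBTRG-05MG cells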
Description: SANGER: Inhibition of human DBTRG-05MG cell growth in a cell viability assay.

DMS-273 = type: functional, cell-based, Homo sapiens; conditions: Homo sapiens, DMS-273
Description: SANGER: Inhibition of human DMS-273 cell growth in a cell viability assay.

DoTc2-4510 = type: functional, cell-based, Homo sapiens; conditions: Homo sapiens, DoTc2-4510
EFO-27 = type: functional, cell-based, Homo sapiens; conditions: Homo sapiens, EFO-27;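 further: growth inhibition of EFO-27 cells, read out with a cell viability assay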
Description: SANGER: Inhibition of human EFO-27 cell growth in a cell viability assay.

ES4 = type: functional, cell-based, Homo sapiens; conditions: Homo sapiens, ES4;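 further: growth inhibition of human ES4 cells, read out by a cell viability assay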
Description: SANGER: Inhibition of human ES4 cell growth in a cell viability assay.

ES5 = type: functional, cell-based, Homo sapiens; conditions: Homo sapiens, ES5;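 further: growth inhibition of human ES5 cells, read out by a cell viability assay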
Description: SANGER: Inhibition of human ES5 cell growth in a cell viability assay.

ETK-1 = type: functional, cell-based, Homo sapiens; conditions: Homo sapiens, ETK-1;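 further: growth inhibition of human ETK-1 cells, read out with a cell viability assay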
Description: SANGER: Inhibition of human ETK-1 cell growth in a cell viability assay.

GOTO = type: functional, cell-based, Homo sapiens; conditions: Homo sapiens, GOTO;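 further: growth inhibition of GOTO cells, read out by a cell viability assay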
Description: SANGER: Inhibition of human GOTO cell growth in a cell viability assay.

HCC1569 = type: functional, cell-based, Homo sapiens; conditions: Homo sapiens, HCC1569;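 further: growth inhibition of human HCC1569 cells, read out with a cell viability assay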
Description: SANGER: Inhibition of human HCC1569 cell growth in a cell viability assay.

HCC2157 = type: functional, cell-based; conditions: Homo sapiens;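 further: growth inhibition of the cancer cell line, read out as cell viability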
Description: SANGER: Inhibition of human HCC2157 cell growth in a cell viability assay.

HCC70 = type: functional, cell-based, Homo sapiens; conditions: Homo sapiens, HCC70;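 further: cell viability assay measuring how strongly the compound suppresses proliferation of HCC70 cells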
Description: SANGER: Inhibition of human HCC70 cell growth in a cell viability assay.

HH = type: functional, cell-based; conditions: Homo sapiens
Description: SANGER: Inhibition of human HH cell growth in a cell viability assay.

KOSC-2 = type: functional, cell-based, Homo sapiens; conditions: Homo sapiens, KOSC-2;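 further: growth inhibition of KOSC-2 cells, read out by a cell viability assay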
Description: SANGER: Inhibition of human KOSC-2 cell growth in a cell viability assay.

KYSE-450 = type: functional, cell-based; conditions: Homo sapiens;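 further: cell growth inhibition measured by a viability assay in human KYSE-450 cells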
Description: SANGER: Inhibition of human KYSE-450 cell growth in a cell viability assay.

LB373-MEL-D = type: functional, cell-based, Homo sapiens; conditions: Homo sapiens, LB373-MEL-D;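 further: growth inhibition of the cell line, read out in a cell viability assay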
Description: SANGER: Inhibition of human LB373-MEL-D cell growth in a cell viability assay.

LB771-HNC = type: functional, cell-based, Homo sapiens; conditions: Homo sapiens, LB771-HNC;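 further: growth inhibition of LB771-HNC human cells, read out with a cell viability assay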
Description: SANGER: Inhibition of human LB771-HNC cell growth in a cell viability assay.

LK-2 = type: functional, cell-based, Homo sapiens; conditions: Homo sapiens, LK-2;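 further: growth inhibition of LK-2 cells, read out with a viability assay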
Description: SANGER: Inhibition of human LK-2 cell growth in a cell viability assay.

MKN-45 = type: functional, cell-based, Homo sapiens; conditions: Homo sapiens, MKN-45;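 further: growth inhibition of human MKN-45 cells, measured with a cell viability assay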
Description: SANGER: Inhibition of human MKN45 cell growth in a cell viability assay.

MV4-11 = type: functional, cell-based, MV-4-11; conditions: Homo sapiens;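 further: cell viability readout measuring growth inhibition of human MV-4-11 cells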
Description: SANGER: Inhibition of human MV-4-11 cell growth in a cell viability assay.

NB12 = type: functional, cell-based, Homo sapiens; conditions: Homo sapiens, NB12;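 further: growth inhibition of human NB12 cells, read out by a cell viability assay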
Description: SANGER: Inhibition of human NB12 cell growth in a cell viability assay.

NB14 = type: functional, cell-based; conditions: Homo sapiens;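 further: growth inhibition of NB14 cells measured with a cell viability assay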
Description: SANGER: Inhibition of human NB14 cell growth in a cell viability assay.

NB5 = type: functional, cell-based, Homo sapiens; conditions: Homo sapiens, NB5;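 further: growth inhibition of NB5 cells, read out as cell viability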
Description: SANGER: Inhibition of human NB5 cell growth in a cell viability assay.

NCI-H1563 = type: functional, cell-based, Homo sapiens; conditions: Homo sapiens, NCI-H1563;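 further: growth inhibition of human NCI-H1563 cells, read out with a cell viability assay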
Description: SANGER: Inhibition of human NCI-H1563 cell growth in a cell viability assay.

NCI-H2126 = type: functional, cell-based, Homo sapiens; conditions: Homo sapiens, NCI-H2126;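 further: growth inhibition of the cancer cell line, determined with a cell viability readout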
Description: SANGER: Inhibition of human NCI-H2126 cell growth in a cell viability assay.

NCI-H520 = type: functional, cell-based, Homo sapiens; conditions: Homo sapiens, NCI-H520;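 further: growth inhibition of NCI-H520 cells, measured by a cell viability assay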
Description: SANGER: Inhibition of human NCI-H520 cell growth in a cell viability assay.

NH-12 = type: functional, cell-based, Homo sapiens; conditions: Homo sapiens, NH-12;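 further: growth inhibition of NH-12 cells, read out with a cell viability assay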
Description: SANGER: Inhibition of human NH-12 cell growth in a cell viability assay.

NUGC-3 = type: functional, cell-based, Homo sapiens; conditions: Homo sapiens, NUGC-3;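 further: growth inhibition of human NUGC-3 cells, read out with a cell viability assay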
Description: SANGER: Inhibition of human NUGC-3 cell growth in a cell viability assay.

PANC-08-13 = type: functional, cell-based, Homo sapiens; conditions: Homo sapiens, PANC-08-13;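 further: cell growth inhibition, measured with a cell viability assay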
Description: SANGER: Inhibition of human PANC-08-13 cell growth in a cell viability assay.

RH-1 = type: functional, cell-based, Homo sapiens; conditions: Homo sapiens, RH-1;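 further: growth inhibition of human RH-1 cells, read out with a cell viability assay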
Description: SANGER: Inhibition of human RH-1 cell growth in a cell viability assay.

Ramos-2G6-4C10 = type: functional, cell-based; conditions: Homo sapiens;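 further: growth inhibition of the cell line, measured by a cell viability read-out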
Description: SANGER: Inhibition of human Ramos-2G6-4C10 cell growth in a cell viability assay.

SAS = type: functional, cell-based, Homo sapiens; conditions: Homo sapiens, SAS;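 further: growth inhibition of SAS cells, read out with a cell viability assay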
Description: SANGER: Inhibition of human SAS cell growth in a cell viability assay.

SCC-4 = type: functional, cell-based, Homo sapiens; conditions: Homo sapiens, SCC-4;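 further: growth inhibition of human SCC-4 cells, read out as cell viability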
Description: SANGER: Inhibition of human SCC-4 cell growth in a cell viability assay.

SK-OV-3 = type: functional, cell-based, Homo sapiens; conditions: Homo sapiens, SK-OV-3;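 further: growth inhibition of SK-OV-3 human cells, read out with a cell viability assay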
Description: SANGER: Inhibition of human SK-OV-3 cell growth in a cell viability assay.

SK-PN-DW = type: functional, cell-based; conditions: Homo sapiens;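 further: growth inhibition measured with a viability assay on these cells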
Description: SANGER: Inhibition of human SK-PN-DW cell growth in a cell viability assay.

A2780 = type: functional, cell-based, Homo sapiens; conditions: Homo sapiens, A2780;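 further: growth inhibition of A2780 cells, read out with a cell viability assay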
Description: SANGER: Inhibition of human A2780 cell growth in a cell viability assay.

A3-KAW = type: functional, cell-based; conditions: Homo sapiens;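 further: growth inhibition of human A3-KAW cells, read out with a cell viability assay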
Description: SANGER: Inhibition of human A3-KAW cell growth in a cell viability assay.

ACN = type: functional, cell-based, Homo sapiens; conditions: Homo sapiens, ACN;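 further: growth inhibition of the human ACN cell line, read out via cell viability testing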
Description: SANGER: Inhibition of human ACN cell growth in a cell viability assay.

BE-13 = type: functional, cell-based; conditions: Homo sapiens;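 further: growth inhibition of human BE-13 cells, measured with a cell viability assay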
Description: SANGER: Inhibition of human BE-13 cell growth in a cell viability assay.

BHT-101 = type: functional, cell-based, Homo sapiens; conditions: Homo sapiens, BHT-101
Description: SANGER: Inhibition of human BHT-101 cell growth in a cell viability assay.

TE-11 = type: functional, cell-based, Homo sapiens; conditions: Homo sapiens, TE-11;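 further: growth inhibition of human TE-11 cells, read out by a cell viability assay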
Description: SANGER: Inhibition of human TE-11 cell growth in a cell viability assay.

TE-6 = type: functional, cell-based, Homo sapiens; conditions: Homo sapiens, TE-6;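 further: growth inhibition of TE-6 cells, read out with a cell viability assay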
Description: SANGER: Inhibition of human TE-6 cell growth in a cell viability assay.

TGBC24TKB = type: functional, cell-based, Homo sapiens; conditions: Homo sapiens, TGBC24TKB;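 further: growth inhibition of human TGBC24TKB cells, read out with a cell viability assay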
Description: SANGER: Inhibition of human TGBC24TKB cell growth in a cell viability assay.

TYK-nu = type: functional, cell-based, Homo sapiens; conditions: Homo sapiens, TYK-nu;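 further: growth inhibition of human TYK-nu cells, read out by a cell viability assay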
Description: SANGER: Inhibition of human TYK-nu cell growth in a cell viability assay.

U2OS = type: functional, cell-based, Homo sapiens, U-2-OS; conditions: Homo sapiens, U2OS;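 further: growth inhibition of human U-2-OS cells, determined with a cell viability assay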
Description: SANGER: Inhibition of human U-2-OS cell growth in a cell viability assay.

VMRC-RCZ = type: functional, cell-based; conditions: Homo sapiens;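 further: growth inhibition measured with a cell viability assay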
Description: SANGER: Inhibition of human VMRC-RCZ cell growth in a cell viability assay.

WM-115 = type: functional, cell-based, Homo sapiens; conditions: Homo sapiens, WM-115
Description: SANGER: Inhibition of human WM-115 cell growth in a cell viability assay.

CAMA-1 = type: functional, cell-based, Homo sapiens; conditions: Homo sapiens, CAMA-1;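 further: growth inhibition of CAMA-1 cells, read out with a cell viability assay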
Description: SANGER: Inhibition of human CAMA-1 cell growth in a cell viability assay.

Question: With `CC(=O)O[C@@H]1[C@@H](OC(C)=O)[C@@H](O)[C@H](Oc2c(-c3ccc(O)cc3)oc3cc(O)cc(O)c3c2=O)O[C@H]1C` as the compound, how does the IC50 (COLO-829) read?
Answer: > 10 µM

Question: And the IC50 (Ca-Ski)?
Answer: > 10 µM

Question: What about the IC50 (Capan-2) of the same compound?
Answer: > 10 µM

Question: What about the IC50 (D283 Med) of the same compound?
Answer: > 10 µM

Question: And the IC50 (DBTRG-05MG)?
Answer: > 10 µM

Question: What about the IC50 (DMS-273) of the same compound?
Answer: > 10 µM

Question: And the IC50 (DoTc2-4510)?
Answer: > 10 µM

Question: And the IC50 (EFO-27)?
Answer: > 10 µM

Question: What about the IC50 (ES4) of the same compound?
Answer: > 10 µM

Question: What about the IC50 (ES5) of the same compound?
Answer: > 10 µM

Question: What about the IC50 (ETK-1) of the same compound?
Answer: > 10 µM

Question: And the IC50 (GOTO)?
Answer: > 10 µM

Question: What about the IC50 (HCC1569) of the same compound?
Answer: > 10 µM

Question: And the IC50 (HCC2157)?
Answer: 5.65 µM

Question: What about the IC50 (HCC70) of the same compound?
Answer: > 10 µM

Question: What about the IC50 (HH) of the same compound?
Answer: > 10 µM

Question: And the IC50 (KOSC-2)?
Answer: > 10 µM

Question: And the IC50 (KYSE-450)?
Answer: > 10 µM

Question: What about the IC50 (LB373-MEL-D) of the same compound?
Answer: > 10 µM

Question: What about the IC50 (LB771-HNC) of the same compound?
Answer: > 10 µM

Question: And the IC50 (LK-2)?
Answer: > 10 µM

Question: What about the IC50 (MKN-45) of the same compound?
Answer: > 10 µM

Question: And the IC50 (MV4-11)?
Answer: > 10 µM

Question: What about the IC50 (NB12) of the same compound?
Answer: > 10 µM

Question: What about the IC50 (NB14) of the same compound?
Answer: > 10 µM

Question: And the IC50 (NB5)?
Answer: > 10 µM

Question: And the IC50 (NCI-H1563)?
Answer: > 10 µM

Question: And the IC50 (NCI-H2126)?
Answer: > 10 µM

Question: What about the IC50 (NCI-H520) of the same compound?
Answer: > 10 µM

Question: And the IC50 (NH-12)?
Answer: > 10 µM

Question: What about the IC50 (NUGC-3) of the same compound?
Answer: > 10 µM

Question: And the IC50 (PANC-08-13)?
Answer: > 10 µM

Question: And the IC50 (RH-1)?
Answer: > 10 µM

Question: And the IC50 (Ramos-2G6-4C10)?
Answer: > 10 µM

Question: And the IC50 (SAS)?
Answer: > 10 µM

Question: And the IC50 (SCC-4)?
Answer: > 10 µM

Question: What about the IC50 (SK-OV-3) of the same compound?
Answer: > 10 µM

Question: And the IC50 (SK-PN-DW)?
Answer: > 10 µM

Question: What about the IC50 (A2780) of the same compound?
Answer: > 10 µM

Question: What about the IC50 (A3-KAW) of the same compound?
Answer: > 10 µM

Question: What about the IC50 (ACN) of the same compound?
Answer: > 10 µM

Question: And the IC50 (BE-13)?
Answer: > 10 µM

Question: What about the IC50 (BHT-101) of the same compound?
Answer: > 10 µM

Question: What about the IC50 (TE-11) of the same compound?
Answer: > 10 µM

Question: And the IC50 (TE-6)?
Answer: > 10 µM

Question: And the IC50 (TGBC24TKB)?
Answer: > 10 µM

Question: And the IC50 (TYK-nu)?
Answer: > 10 µM

Question: And the IC50 (U2OS)?
Answer: > 10 µM

Question: And the IC50 (VMRC-RCZ)?
Answer: > 10 µM

Question: And the IC50 (WM-115)?
Answer: > 10 µM

Question: What about the IC50 (CAMA-1) of the same compound?
Answer: > 10 µM
